The values that follow come from patent publication US11603546B2, “Method for preparing modified starch and use thereof” (Qilu University of Technology, priority 2020, dated 2023).

Marks after values point to notes of the source that are not given here.

The test system of assay [1] is mice with type II diabetes (STZ injection plus high-glucose-high-fat diet). Description: Type II diabetes mouse model: TC, TG, HDL-C, LDL-C. The note with it: diabetic mice, gavage once daily, four weeks. Format: in vivo, Kunming strain mice. The source says: Fifty mice were pregrouped and labeled. In the experiment, type II diabetes models were established by streptozotocin (STZ) injection plus induction by high-glucose-high-fat diet. […] The mice were randomized into five groups of 10 animals: normal group, diabetic control group, glimepiride group, RS group, and modified starch+GSPAs group; before modeling, the mice were weighed. […] The normal group was fed with normal diet for three weeks, while the remaining four groups were fed with high-glucose-high-fat diet for three weeks; then, the animals were deprived of food hut not water for 12 h; […] (which was prepared with 0.1 mol/L citric acid-sodium citrate buffer solution [pH 4.4 (4.2-4.5)] at a low temperature) was prepared when needed, and was injected intraperitoneally at a single dose of 50 mg/kg (0.5 mg/10 g) of body weight within 30 min; the mice in the normal group were given isodose citric acid-sodium citrate buffer solution and injected at a dose of 50 mg/kg every three days, during which the mice were fed with high-glucose-high-fat diet. After 72 h, the mice were deprived of food but not water for 12 h, and blood was collected from the tail vein to test the fasting blood glucose (FBG); the mice with FBG≥12 mmol/1, with obesity and polyuria were considered as the criteria for successful modeling. Ten normal and healthy mice were assigned to the normal group; the remaining successful modeled mice with type II diabetes were grouped into four groups of 10 animals according to the blood glucose level; the test period was four weeks. Specific groups are listed in Table 2: bw represents body weight. [table] Instructions for gavage dosing: The mice were administered by gavage once daily, in a volume of 0.4 mL. Also, total cholesterol (TC), triglyceride (TG), and low density lipoprotein cholesterol (LDL-C) were tested for diabetic mice, as shown in Table 3.

The test system is the same in assay [2]. The experiment in a line: Type II diabetes mouse model: HE staining of liver sections. Type of assay: in vivo, Kunming strain mice. As to conditions: diabetic mice, intervention groups (FIGS. 9 to 13). An excerpt: Fifty mice were pregrouped and labeled. In the experiment, type II diabetes models were established by streptozotocin (STZ) injection plus induction by high-glucose-high-fat diet. […] The mice were randomized into five groups of 10 animals: normal group, diabetic control group, glimepiride group, RS group, and modified starch+GSPAs group; before modeling, the mice were weighed.
The normal group was fed with normal diet for three weeks, while the remaining four groups were fed with high-glucose-high-fat diet for three weeks; then, the animals were deprived of food hut not water for 12 h; […] (which was prepared with 0.1 mol/L citric acid-sodium citrate buffer solution [pH 4.4 (4.2-4.5)] at a low temperature) was prepared when needed, and was injected intraperitoneally at a single dose of 50 mg/kg (0.5 mg/10 g) of body weight within 30 min; the mice in the normal group were given isodose citric acid-sodium citrate buffer solution and injected at a dose of 50 mg/kg every three days, during which the mice were fed with high-glucose-high-fat diet. After 72 h, the mice were deprived of food but not water for 12 h, and blood was collected from the tail vein to test the fasting blood glucose (FBG); the mice with FBG≥12 mmol/1, with obesity and polyuria were considered as the criteria for successful modeling. […]

As for `CCC1=C(C)CN(C(=O)NCCc2ccc(S(=O)(=O)NC(=O)N[C@H]3CC[C@H](C)CC3)cc2)C1=O` [Glimepiride, glimepiride], in assay [1], the “High density lipid cholesterol (HDL-C)” value is reported as 2.26 ± 0.31^a mmol/L, the LDL-C is 0.65 ± 0.17^b mmol/L, the TC is 3.16 ± 0.37^b mmol/L and the TG is 1.06 ± 0.09^b mmol/L. Further, the “HE staining of liver sections” value in assay [2] was “improve symptoms of disordered liver cells and massive inflammatory cell infiltration”.
